Common to all, as to experiment: DTP human tumour cell line panel, 48 h
In experiment [1] the test system is DU-145.
Experiment [2] has as its system SNB-75.
The test system of experiment [3] is ACHN.
For experiment [4], the system named is HCT-116.
The subject of experiment [5] is OVCAR-4.
Experiment [6] has as its system TK-10.
Experiment [7] has as its system 786-0.
The test system of experiment [8] is HCC 2998.
Experiment [9] relates to OVCAR-5.
The subject of experiment [10] is COLO 205.
Experiment [11] deals with A549.
For experiment [12], the system named is MDA-MB-231.
For experiment [13], the system named is SF-295.
In experiment [14] the test system is HT-29.
The subject of experiment [15] is CCRF-CEM.
For experiment [16], the system named is UO-31.
Experiment [17] concerns NCI-H522.
The subject of experiment [18] is OVCAR-8.
Experiment [19] relates to MOLT-4.
The test system of experiment [20] is UACC-257.

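Briefly, cells in 96-well plates were exposed to five compound concentrations for 48 h, and endpoints were estimated by linear interpolation. At the GI50, growth is halved.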 Activity calls are given as the source filed them. Rule as the data show it: active = GI50 up to about 1.1 µM and inactive = higher.

The term GI50 denotes the concentration giving 50% growth inhibition.

Regarding `c1cc(C2N3CCCN2CC3)ccn1` (stereo unspecified), the GI50 in experiment [1] was > 100 µM (inactive); in experiment [2], > 100 µM (inactive); in experiment [3], > 100 µM (inactive); in experiment [4], 36.9 µM (inactive); in [5] it was 86.7 µM (inactive); in experiment [6] it was > 100 µM (inactive). Also, the GI50 was 56.2 µM (inactive) in experiment [7]; > 100 µM (inactive) in experiment [8]; > 100 µM (inactive) in experiment [9]; > 100 µM (inactive) in experiment [10]; > 100 µM (inactive) in experiment [11]; > 100 µM (inactive) in experiment [12]. For the same molecule, the GI50 is > 100 µM (inactive) in experiment [13]; > 100 µM (inactive) in [14]; 33.4 µM (inactive) in experiment [15]; > 100 µM (inactive) in experiment [16]; 4.85 µM (inactive) in experiment [17]; 53.8 µM (inactive) in [18]. Besides, the GI50 in experiment [19] is 36.1 µM (inactive); in [20] it was > 100 µM (inactive).

Regarding `Cn1c(=O)c2nc(CCNC(=O)c3ccccc3)[nH]c2n(C)c1=O`, the GI50 in [1], in experiment [2], in experiment [3], in experiment [4], in experiment [5] and in experiment [6] was > 100 µM (inactive) each time. Moreover, the GI50 in experiment [7], in [8], in [9], in [11], in [12] and in [13] was > 100 µM (inactive) throughout. Moreover, the GI50 in experiment [14], in experiment [15], in experiment [16], in experiment [17], in experiment [18] and in experiment [19] was > 100 µM (inactive) each time. For the same molecule, the GI50 in experiment [20] was > 100 µM (inactive).

On to `CC1(C)OC(CCC#N)CN1C(=O)OCc1ccccc1` (stereo unspecified), for which the GI50 in experiment [1] is > 100 µM (inactive); in experiment [2], 3.4 µM (inactive); in experiment [3] it was > 100 µM (inactive); in experiment [4], > 100 µM (inactive); in experiment [5] it was > 100 µM (inactive); in experiment [6], > 100 µM (inactive). Besides, the GI50 in experiment [7], in [8], in experiment [9], in [10], in experiment [11] and in experiment [12] was > 100 µM (inactive) in each case. In addition, the GI50 is > 100 µM (inactive) in experiment [13]; > 100 µM (inactive) in experiment [15]; > 100 µM (inactive) in [16]; 75.2 µM (inactive) in experiment [17]; > 100 µM (inactive) in experiment [18]; > 100 µM (inactive) in experiment [19]. Further, the GI50 in experiment [20] is > 100 µM (inactive).

Consider `CC(C)(CO)CNc1nc(N)nc(Cl)c1/C=N/O`, for which the GI50 is 31.4 µM (inactive) in [1]; 50.9 µM (inactive) in experiment [2]; 28.6 µM (inactive) in experiment [3]; 10.2 µM (inactive) in experiment [4]; 34 µM (inactive) in [5]; 35 µM (inactive) in experiment [6]. For the same molecule, the GI50 is 36.7 µM (inactive) in experiment [7]; 71.1 µM (inactive) in [8]; 41.2 µM (inactive) in experiment [9]; 62.7 µM (inactive) in experiment [10]; 16.9 µM (inactive) in experiment [11]; 25.8 µM (inactive) in experiment [12]. Also, the GI50 in [13] was 14.1 µM (inactive); in experiment [14] it was 42.1 µM (inactive); in [15] it was 23 µM (inactive); in experiment [16], 17.3 µM (inactive); in experiment [17], 25.8 µM (inactive); in experiment [18] it was 31.6 µM (inactive). Further, the GI50 in experiment [19] is 17 µM (inactive); in experiment [20] it was 36.1 µM (inactive).

Take `CNC(=S)N/N=C(\C)c1cc(OC)ccc1O`: the GI50 in experiment [1] was > 100 µM (inactive); in experiment [2], > 95.3 µM (inactive); in experiment [3], > 100 µM (inactive); in experiment [4], > 100 µM (inactive); in [5] it was > 100 µM (inactive); in experiment [7] it was > 100 µM (inactive). Moreover, the GI50 in experiment [8] is > 100 µM (inactive); in [9], > 100 µM (inactive); in experiment [10] it was 0.447 µM (active); in [11], > 100 µM (inactive); in [12] it was > 100 µM (inactive); in experiment [13], > 100 µM (inactive). The GI50 in [14] was 0.951 µM (active); in experiment [15], > 27.9 µM (inactive); in experiment [16], > 100 µM (inactive); in experiment [17], 3.9 µM (inactive); in experiment [18], > 100 µM (inactive); in [19], > 65.6 µM (inactive). Moreover, in experiment [20], the GI50 is > 100 µM (inactive).

Consider `CCOC(=O)c1c(-c2ccc(OC)cc2)c(C#N)c(=S)n(C2OC(CO)C(O)C(O)C2O)c1C` (stereo unspecified), for which the GI50 in experiment [1], in experiment [2], in [4], in [5], in [6] and in experiment [7] was > 100 µM (inactive) each time. Further, the GI50 in experiment [8], in [9], in experiment [10], in experiment [11], in experiment [12] and in [13] was > 100 µM (inactive) each time. The GI50 in experiment [14], in experiment [15], in experiment [16], in [17], in experiment [18] and in [19] was > 100 µM (inactive) each time. In addition, the GI50 in experiment [20] is > 100 µM (inactive).

With `N/C(CSCCSC/C(N)=N/O)=N\O`, the GI50 in experiment [1], in [2], in experiment [3], in [4], in experiment [5] and in experiment [6] was > 100 µM (inactive) each time. Also, the GI50 in experiment [7], in [8], in [9], in experiment [10], in experiment [11] and in [12] was > 100 µM (inactive) in each case. In addition, the GI50 in experiment [14], in [15], in [16], in [17] and in experiment [19] was > 100 µM (inactive) in each case.

In the case of `CSc1nc2c(N)ncnc2n1C`, the GI50 in [1] is > 100 µM (inactive); in [2] it was 82.8 µM (inactive); in experiment [3], > 100 µM (inactive); in experiment [4], > 100 µM (inactive); in [5], > 100 µM (inactive); in [6], > 100 µM (inactive). The GI50 in [7], in [8], in experiment [9], in experiment [10], in [11] and in [12] was > 100 µM (inactive) each time. In addition, the GI50 in experiment [13], in experiment [14], in experiment [15], in experiment [16], in experiment [17] and in [18] was > 100 µM (inactive) in each case. The GI50 in experiment [19] and in experiment [20] was > 100 µM (inactive) in each case.

On to `CN(C)c1n/c(=N/Cc2cccs2)ss1`, for which the GI50 in experiment [1], in experiment [2], in experiment [3], in [4], in experiment [5] and in experiment [6] was > 10 µM (inactive) each time. Further, the GI50 in [7] is 9.98 µM (inactive); in experiment [8] it was > 10 µM (inactive); in experiment [9], > 10 µM (inactive); in experiment [10] it was > 10 µM (inactive); in [11], > 10 µM (inactive); in experiment [12], > 10 µM (inactive). For the same molecule, the GI50 in experiment [13] was > 10 µM (inactive); in experiment [14], > 10 µM (inactive); in [15] it was 0.173 µM (active); in experiment [16], > 10 µM (inactive); in experiment [17], 2.11 µM (inactive); in experiment [18], > 10 µM (inactive). The GI50 in experiment [19] was 1.72 µM (inactive); in experiment [20] it was > 10 µM (inactive).

With `CN(C)c1cccc2c(S(=O)(=O)NCCN)cccc12` [DANSYL ETHYLENEDIAMINE], the GI50 was > 100 µM (inactive) in experiment [1]; 4.74 µM (inactive) in experiment [2]; > 100 µM (inactive) in [3]; 35.2 µM (inactive) in experiment [4]; > 100 µM (inactive) in experiment [5]; > 100 µM (inactive) in experiment [7]. For the same molecule, the GI50 in experiment [8] was 39.5 µM (inactive); in experiment [9] it was > 100 µM (inactive); in experiment [10] it was > 100 µM (inactive); in [11] it was > 100 µM (inactive); in experiment [12] it was > 100 µM (inactive); in [13], > 100 µM (inactive). Also, the GI50 is > 100 µM (inactive) in experiment [14]; > 100 µM (inactive) in experiment [15]; 98.9 µM (inactive) in [16]; > 100 µM (inactive) in [17]; > 100 µM (inactive) in experiment [19]; > 100 µM (inactive) in experiment [20].

The values above are taken from ChEMBL document CHEMBL1201862, “PubChem BioAssay data set” (2004).
